In ChEMBL document CHEMBL1145498, “A systematic interaction map of validated kinase inhibitors with Ser/Thr kinases” (Proc Natl Acad Sci U S A, 2007):

Legend:
[1] = molecular target: Serine/threonine-protein kinase 26 (Homo sapiens) (UniProt Q9P289)
[2] = molecular target: Mitogen-activated protein kinase 6 (Homo sapiens) (UniProt Q16659)
[3] = molecular target: Serine/threonine-protein kinase 16 (Homo sapiens) (UniProt O75716)
[4] = molecular target: T1, Calcium/calmodulin-dependent protein kinase type IV (Homo sapiens) (UniProt Q16566)
T1 sequence (whole entry): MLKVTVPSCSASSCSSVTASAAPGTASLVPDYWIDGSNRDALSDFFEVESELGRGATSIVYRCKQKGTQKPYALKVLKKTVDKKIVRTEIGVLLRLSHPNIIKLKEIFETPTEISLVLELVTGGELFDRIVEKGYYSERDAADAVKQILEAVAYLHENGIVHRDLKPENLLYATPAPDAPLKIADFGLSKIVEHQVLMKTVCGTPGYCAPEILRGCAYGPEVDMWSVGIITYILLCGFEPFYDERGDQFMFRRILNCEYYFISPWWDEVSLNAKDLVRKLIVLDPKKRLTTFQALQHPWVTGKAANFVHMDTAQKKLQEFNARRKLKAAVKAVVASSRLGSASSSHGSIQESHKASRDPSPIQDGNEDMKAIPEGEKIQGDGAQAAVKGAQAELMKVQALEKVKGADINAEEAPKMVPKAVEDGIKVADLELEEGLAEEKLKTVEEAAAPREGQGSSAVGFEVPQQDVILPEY

[5] = molecular target: Serine/threonine-protein kinase pim-2 (Homo sapiens, UniProt Q9P1W9)
[6] = molecular target: Dual specificity protein kinase CLK1 (Homo sapiens) (UniProt P49759)
[7] = molecular target: Dual specificity protein kinase CLK3 (Homo sapiens) (UniProt P49761)
[8] = molecular target: T2, Serine/threonine-protein kinase VRK3 (Homo sapiens) (UniProt Q8IV63)
T2 sequence (whole entry): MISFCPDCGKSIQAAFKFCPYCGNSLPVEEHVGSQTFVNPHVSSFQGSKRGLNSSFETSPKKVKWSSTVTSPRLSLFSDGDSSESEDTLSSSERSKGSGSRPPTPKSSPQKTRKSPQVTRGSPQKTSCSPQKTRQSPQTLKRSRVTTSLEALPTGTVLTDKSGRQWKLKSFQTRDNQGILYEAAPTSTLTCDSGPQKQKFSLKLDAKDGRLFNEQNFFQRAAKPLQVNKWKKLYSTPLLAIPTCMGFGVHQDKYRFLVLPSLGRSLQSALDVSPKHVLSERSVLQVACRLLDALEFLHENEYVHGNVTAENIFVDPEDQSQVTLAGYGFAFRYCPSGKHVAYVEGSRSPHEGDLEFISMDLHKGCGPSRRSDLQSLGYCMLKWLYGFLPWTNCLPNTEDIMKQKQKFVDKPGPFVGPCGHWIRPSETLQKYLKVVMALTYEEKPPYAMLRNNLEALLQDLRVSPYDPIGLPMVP

[9] = molecular target: Serine/threonine-protein kinase PAK 4 (Homo sapiens) (UniProt O96013)
[10] = molecular target: Serine/threonine-protein kinase 38 (Homo sapiens) (UniProt Q15208)
[11] = molecular target: Ribosomal protein S6 kinase alpha-3 (Homo sapiens) (UniProt P51812)
[12] = molecular target: T3, Serine/threonine-protein kinase PLK4 (Homo sapiens) (UniProt O00444)
T3 sequence (whole entry): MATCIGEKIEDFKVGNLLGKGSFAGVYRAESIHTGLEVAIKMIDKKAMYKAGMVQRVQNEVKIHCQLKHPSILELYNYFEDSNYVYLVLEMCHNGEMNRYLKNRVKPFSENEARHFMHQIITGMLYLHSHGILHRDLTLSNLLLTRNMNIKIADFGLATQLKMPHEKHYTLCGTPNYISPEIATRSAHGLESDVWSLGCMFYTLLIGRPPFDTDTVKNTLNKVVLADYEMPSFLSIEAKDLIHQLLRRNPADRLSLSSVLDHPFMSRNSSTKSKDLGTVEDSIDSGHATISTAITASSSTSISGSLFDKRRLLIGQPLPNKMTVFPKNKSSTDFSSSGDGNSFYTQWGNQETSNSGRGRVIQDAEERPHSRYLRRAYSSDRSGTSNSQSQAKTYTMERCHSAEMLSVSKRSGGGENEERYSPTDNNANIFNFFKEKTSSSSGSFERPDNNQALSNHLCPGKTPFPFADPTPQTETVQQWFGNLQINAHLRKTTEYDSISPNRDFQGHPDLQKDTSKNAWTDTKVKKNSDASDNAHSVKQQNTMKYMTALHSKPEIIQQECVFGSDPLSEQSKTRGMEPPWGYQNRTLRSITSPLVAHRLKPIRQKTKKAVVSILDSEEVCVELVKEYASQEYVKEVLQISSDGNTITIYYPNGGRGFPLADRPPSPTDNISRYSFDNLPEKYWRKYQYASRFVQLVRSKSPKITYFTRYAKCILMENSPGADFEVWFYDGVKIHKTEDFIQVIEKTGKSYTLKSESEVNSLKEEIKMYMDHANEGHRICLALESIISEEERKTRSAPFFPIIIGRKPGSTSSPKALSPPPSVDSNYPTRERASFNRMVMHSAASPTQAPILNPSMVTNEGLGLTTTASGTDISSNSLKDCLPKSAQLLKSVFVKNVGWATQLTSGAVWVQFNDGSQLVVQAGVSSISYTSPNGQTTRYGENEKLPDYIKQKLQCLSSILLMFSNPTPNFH

[13] = molecular target: Calcium/calmodulin-dependent protein kinase type II subunit beta (Homo sapiens) (UniProt Q13554)
[14] = molecular target: Cyclin-dependent kinase 6 (Homo sapiens) (UniProt Q00534)
[15] = molecular target: Mitogen-activated protein kinase 11 (Homo sapiens, UniProt Q15759)
[16] = molecular target: Cyclin-dependent kinase-like 1 (Homo sapiens) (UniProt Q00532)
[17] = molecular target: Casein kinase I isoform gamma-3 (Homo sapiens) (UniProt Q9Y6M4)
[18] = molecular target: Serine/threonine-protein kinase VRK2 (Homo sapiens) (UniProt Q86Y07)
Chain of Serine/threonine-protein kinase VRK2 (Homo sapiens) (Q86Y07 whole entry): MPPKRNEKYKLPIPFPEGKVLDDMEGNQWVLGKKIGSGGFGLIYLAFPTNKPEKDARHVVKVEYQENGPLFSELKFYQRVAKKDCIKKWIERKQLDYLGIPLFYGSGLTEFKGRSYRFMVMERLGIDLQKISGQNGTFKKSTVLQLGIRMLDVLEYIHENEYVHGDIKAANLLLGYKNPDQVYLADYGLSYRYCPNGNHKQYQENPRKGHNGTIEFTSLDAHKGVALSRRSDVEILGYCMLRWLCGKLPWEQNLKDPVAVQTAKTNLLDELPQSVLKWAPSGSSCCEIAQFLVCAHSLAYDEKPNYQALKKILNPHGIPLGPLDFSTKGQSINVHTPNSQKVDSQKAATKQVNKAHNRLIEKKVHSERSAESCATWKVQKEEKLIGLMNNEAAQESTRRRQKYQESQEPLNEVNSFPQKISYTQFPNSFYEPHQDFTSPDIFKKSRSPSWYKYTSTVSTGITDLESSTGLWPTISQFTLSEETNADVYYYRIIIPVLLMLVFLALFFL

Chain of Dual specificity protein kinase CLK1 (Homo sapiens) (P49759 whole entry, looked up): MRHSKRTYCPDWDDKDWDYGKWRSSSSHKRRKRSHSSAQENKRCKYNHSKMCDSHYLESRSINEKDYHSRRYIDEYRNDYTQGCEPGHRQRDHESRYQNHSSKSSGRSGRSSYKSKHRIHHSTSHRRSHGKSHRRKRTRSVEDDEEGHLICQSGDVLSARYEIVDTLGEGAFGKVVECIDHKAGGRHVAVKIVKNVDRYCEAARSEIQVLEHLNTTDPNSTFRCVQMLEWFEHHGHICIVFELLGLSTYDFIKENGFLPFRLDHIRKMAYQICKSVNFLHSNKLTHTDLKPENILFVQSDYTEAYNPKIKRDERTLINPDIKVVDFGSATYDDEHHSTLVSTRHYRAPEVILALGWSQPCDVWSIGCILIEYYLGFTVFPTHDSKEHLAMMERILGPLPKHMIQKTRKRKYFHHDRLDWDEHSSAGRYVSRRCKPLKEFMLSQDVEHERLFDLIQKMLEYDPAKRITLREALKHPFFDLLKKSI
Chain of Calcium/calmodulin-dependent protein kinase type II subunit beta (Homo sapiens) (Q13554 whole entry): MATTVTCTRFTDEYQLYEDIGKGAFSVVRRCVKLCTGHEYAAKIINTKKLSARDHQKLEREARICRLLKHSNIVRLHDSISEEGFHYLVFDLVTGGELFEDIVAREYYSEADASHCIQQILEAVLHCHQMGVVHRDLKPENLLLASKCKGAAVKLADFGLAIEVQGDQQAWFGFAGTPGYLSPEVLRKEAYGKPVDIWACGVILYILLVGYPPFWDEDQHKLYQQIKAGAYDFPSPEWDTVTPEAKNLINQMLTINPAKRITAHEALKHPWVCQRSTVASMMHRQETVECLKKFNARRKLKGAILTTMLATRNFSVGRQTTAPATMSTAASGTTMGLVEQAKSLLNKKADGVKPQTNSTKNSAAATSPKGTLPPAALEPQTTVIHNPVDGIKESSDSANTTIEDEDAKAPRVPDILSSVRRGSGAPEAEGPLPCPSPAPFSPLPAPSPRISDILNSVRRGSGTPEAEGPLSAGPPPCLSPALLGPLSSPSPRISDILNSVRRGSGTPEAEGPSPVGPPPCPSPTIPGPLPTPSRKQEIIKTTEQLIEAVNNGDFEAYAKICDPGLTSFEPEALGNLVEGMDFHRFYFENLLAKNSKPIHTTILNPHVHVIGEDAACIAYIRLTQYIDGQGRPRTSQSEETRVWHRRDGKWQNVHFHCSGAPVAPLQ
Chain of Cyclin-dependent kinase-like 1 (Homo sapiens) (Q00532 whole entry, canonical isoform): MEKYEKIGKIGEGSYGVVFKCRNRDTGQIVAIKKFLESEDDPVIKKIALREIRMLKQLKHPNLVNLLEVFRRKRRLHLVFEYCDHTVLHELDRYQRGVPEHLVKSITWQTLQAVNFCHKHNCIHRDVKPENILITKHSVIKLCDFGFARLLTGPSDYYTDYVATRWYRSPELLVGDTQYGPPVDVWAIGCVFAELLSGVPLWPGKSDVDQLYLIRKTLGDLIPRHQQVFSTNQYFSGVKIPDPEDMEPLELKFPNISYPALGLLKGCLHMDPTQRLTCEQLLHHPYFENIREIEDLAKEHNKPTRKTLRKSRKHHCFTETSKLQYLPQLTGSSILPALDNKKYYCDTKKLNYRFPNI
Chain of Serine/threonine-protein kinase pim-2 (Q9P1W9 whole entry, looked up): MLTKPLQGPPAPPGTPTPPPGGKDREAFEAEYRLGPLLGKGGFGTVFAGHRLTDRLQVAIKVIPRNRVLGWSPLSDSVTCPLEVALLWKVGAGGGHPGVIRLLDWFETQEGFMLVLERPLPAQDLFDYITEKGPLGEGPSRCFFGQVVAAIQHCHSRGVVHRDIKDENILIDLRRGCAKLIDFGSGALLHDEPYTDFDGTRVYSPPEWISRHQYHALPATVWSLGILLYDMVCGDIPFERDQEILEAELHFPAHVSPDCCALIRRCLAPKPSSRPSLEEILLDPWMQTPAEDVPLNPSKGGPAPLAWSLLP
Chain of Serine/threonine-protein kinase PAK 4 (Homo sapiens) (O96013 whole entry, looked up): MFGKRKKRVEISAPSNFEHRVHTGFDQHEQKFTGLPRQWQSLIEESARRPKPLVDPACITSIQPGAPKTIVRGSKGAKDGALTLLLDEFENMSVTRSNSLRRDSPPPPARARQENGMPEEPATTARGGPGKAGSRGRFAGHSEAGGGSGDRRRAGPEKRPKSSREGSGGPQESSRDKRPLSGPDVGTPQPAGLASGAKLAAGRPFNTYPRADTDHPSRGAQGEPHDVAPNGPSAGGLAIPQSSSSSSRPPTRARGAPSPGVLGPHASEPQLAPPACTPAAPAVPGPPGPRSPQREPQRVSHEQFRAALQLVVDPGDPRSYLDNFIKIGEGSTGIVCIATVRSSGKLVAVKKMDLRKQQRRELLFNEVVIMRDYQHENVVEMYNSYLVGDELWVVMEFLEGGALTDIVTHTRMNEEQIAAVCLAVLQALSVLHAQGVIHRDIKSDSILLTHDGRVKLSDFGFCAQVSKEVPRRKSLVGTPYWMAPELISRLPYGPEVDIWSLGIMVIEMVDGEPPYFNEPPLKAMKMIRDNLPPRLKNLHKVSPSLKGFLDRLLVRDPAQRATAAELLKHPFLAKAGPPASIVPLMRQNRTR
Chain of Serine/threonine-protein kinase 26 (Homo sapiens) (Q9P289 2-416 limits assumed): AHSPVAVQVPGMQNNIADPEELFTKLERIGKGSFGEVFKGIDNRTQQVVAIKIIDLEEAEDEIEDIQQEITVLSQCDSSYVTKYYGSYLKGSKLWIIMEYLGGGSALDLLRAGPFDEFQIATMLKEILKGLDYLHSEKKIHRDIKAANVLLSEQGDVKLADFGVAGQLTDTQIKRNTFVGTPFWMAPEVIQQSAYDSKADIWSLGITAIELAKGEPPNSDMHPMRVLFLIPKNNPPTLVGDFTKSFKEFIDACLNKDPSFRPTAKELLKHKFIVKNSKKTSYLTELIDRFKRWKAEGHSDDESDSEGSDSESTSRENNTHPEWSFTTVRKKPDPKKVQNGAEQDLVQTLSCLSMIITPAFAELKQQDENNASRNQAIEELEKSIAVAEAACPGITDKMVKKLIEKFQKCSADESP
Chain of Mitogen-activated protein kinase 11 (Q15759 whole entry): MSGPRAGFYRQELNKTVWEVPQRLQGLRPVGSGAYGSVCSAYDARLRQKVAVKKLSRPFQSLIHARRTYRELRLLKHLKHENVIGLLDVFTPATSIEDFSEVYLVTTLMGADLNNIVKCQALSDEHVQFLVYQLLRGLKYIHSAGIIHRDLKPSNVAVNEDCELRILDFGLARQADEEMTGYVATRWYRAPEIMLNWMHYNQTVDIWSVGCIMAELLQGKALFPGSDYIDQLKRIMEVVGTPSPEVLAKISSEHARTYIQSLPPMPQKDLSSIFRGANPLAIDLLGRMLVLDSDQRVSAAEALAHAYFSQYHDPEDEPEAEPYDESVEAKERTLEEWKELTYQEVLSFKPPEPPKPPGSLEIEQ
Chain of Ribosomal protein S6 kinase alpha-3 (Homo sapiens) (P51812 whole entry): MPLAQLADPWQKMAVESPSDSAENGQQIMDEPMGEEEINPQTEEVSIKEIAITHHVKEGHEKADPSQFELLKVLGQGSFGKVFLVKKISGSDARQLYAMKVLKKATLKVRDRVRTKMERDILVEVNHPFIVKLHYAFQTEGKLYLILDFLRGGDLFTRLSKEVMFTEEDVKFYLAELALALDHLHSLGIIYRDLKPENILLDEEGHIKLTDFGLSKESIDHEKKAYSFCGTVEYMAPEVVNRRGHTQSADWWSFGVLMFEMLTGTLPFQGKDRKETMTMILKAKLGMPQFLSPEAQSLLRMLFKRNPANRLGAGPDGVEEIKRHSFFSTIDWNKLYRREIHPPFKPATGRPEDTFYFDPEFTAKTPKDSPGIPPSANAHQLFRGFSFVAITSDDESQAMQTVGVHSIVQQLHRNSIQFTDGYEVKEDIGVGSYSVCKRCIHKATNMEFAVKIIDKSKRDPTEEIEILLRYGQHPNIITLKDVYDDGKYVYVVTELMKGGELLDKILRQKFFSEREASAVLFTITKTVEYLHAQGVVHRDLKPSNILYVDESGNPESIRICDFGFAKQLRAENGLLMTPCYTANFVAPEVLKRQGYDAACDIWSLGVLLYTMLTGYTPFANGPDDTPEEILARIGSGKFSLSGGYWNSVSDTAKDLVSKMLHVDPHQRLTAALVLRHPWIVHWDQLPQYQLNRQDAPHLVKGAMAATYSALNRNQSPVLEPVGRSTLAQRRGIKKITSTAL
Chain of Casein kinase I isoform gamma-3 (Homo sapiens) (Q9Y6M4 whole entry, looked up, canonical isoform): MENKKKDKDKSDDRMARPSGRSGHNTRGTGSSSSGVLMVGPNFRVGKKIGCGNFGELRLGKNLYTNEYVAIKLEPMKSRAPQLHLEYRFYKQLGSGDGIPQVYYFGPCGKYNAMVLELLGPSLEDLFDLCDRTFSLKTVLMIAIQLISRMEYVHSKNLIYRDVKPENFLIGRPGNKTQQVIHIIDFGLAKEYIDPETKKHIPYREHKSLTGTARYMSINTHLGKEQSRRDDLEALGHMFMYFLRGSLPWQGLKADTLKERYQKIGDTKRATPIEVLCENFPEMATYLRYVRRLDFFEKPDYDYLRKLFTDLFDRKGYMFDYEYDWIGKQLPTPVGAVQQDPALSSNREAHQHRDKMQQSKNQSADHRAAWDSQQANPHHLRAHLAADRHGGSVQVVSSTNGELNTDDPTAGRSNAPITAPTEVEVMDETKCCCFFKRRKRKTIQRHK

## C#Cc1cccc(Nc2ncnc3cc(OCCOC)c(OCCOC)cc23)c1
[1]
  ΔTm: -0.4 °C
[2]
  ΔTm: 0 °C
[3]
  ΔTm: 0.7 °C
[4]
  ΔTm: 0.1 °C
[5]
  ΔTm: 0 °C
[6]
  ΔTm: -0.5 °C
[7]
  ΔTm: 0.9 °C
[8]
  ΔTm: 0.2 °C
[9]
  ΔTm: 1.6 °C
[10]
  ΔTm: -0.3 °C
[11]
  ΔTm: -0.2 °C
[12]
  ΔTm: -0.1 °C
[13]
  ΔTm: 0.5 °C
[14]
  ΔTm: 0.5 °C
[15]
  ΔTm: 0 °C
[16]
  ΔTm: 0 °C
[17]
  ΔTm: 0.2 °C
[18]
  ΔTm: 0.5 °C

## CC(C)n1cnc2c(NCc3ccccc3)nc(NCCCO)nc21
[1]
  ΔTm: -0.3 °C
[2]
  ΔTm: -0.3 °C
[3]
  ΔTm: 0.6 °C
[4]
  ΔTm: 0.4 °C
[5]
  ΔTm: 0.2 °C
[6]
  ΔTm: 2.6 °C
[7]
  ΔTm: 1 °C
[8]
  ΔTm: -0.3 °C
[9]
  ΔTm: -0.6 °C
[10]
  ΔTm: 0.3 °C
[11]
  ΔTm: 1 °C
[12]
  ΔTm: 0.3 °C
[13]
  ΔTm: 0.1 °C
[14]
  ΔTm: 0.2 °C
[15]
  ΔTm: 0.1 °C
[16]
  ΔTm: -0.1 °C
[17]
  ΔTm: 1.1 °C
[18]
  ΔTm: 1.2 °C

## COc1cc2ncnc(Nc3ccc(F)c(Cl)c3)c2cc1OCCCN1CCOCC1
[1]
  ΔTm: 0 °C
[2]
  ΔTm: 0.8 °C
[3]
  ΔTm: 3.1 °C
[4]
  ΔTm: 0.6 °C
[5]
  ΔTm: 0.6 °C
[6]
  ΔTm: 0.7 °C
[7]
  ΔTm: 0.8 °C
[8]
  ΔTm: 0.6 °C
[9]
  ΔTm: 1.2 °C
[10]
  ΔTm: 0.5 °C
[11]
  ΔTm: 1.3 °C
[12]
  ΔTm: 0 °C
[13]
  ΔTm: 0.3 °C
[14]
  ΔTm: 0.6 °C
[15]
  ΔTm: 0.8 °C
[16]
  ΔTm: 0.2 °C
[17]
  ΔTm: 0.3 °C
[18]
  ΔTm: 0.3 °C

## N#C/C(=C\c1ccc(O)c(O)c1)C(=O)NCc1ccccc1
[1]
  ΔTm: 0.1 °C
[2]
  ΔTm: 0.4 °C
[3]
  ΔTm: 0.4 °C
[4]
  ΔTm: 0.6 °C
[5]
  ΔTm: 1.9 °C
[6]
  ΔTm: 1 °C
[7]
  ΔTm: 0.5 °C
[8]
  ΔTm: -0.2 °C
[9]
  ΔTm: -0.1 °C
[10]
  ΔTm: 0.1 °C
[11]
  ΔTm: 0.6 °C
[12]
  ΔTm: 0.9 °C
[13]
  ΔTm: 0.2 °C
[14]
  ΔTm: 0.4 °C
[15]
  ΔTm: 0.4 °C
[16]
  ΔTm: -0.3 °C
[17]
  ΔTm: 0.5 °C
[18]
  ΔTm: 0.2 °C

## CN(C)c1ccc(CC2C(=O)Nc3ccccc32)cc1 (stereo not drawn)
[1]
  ΔTm: 0.7 °C
[2]
  ΔTm: 0.1 °C
[3]
  ΔTm: 1.9 °C
[4]
  ΔTm: 0.1 °C
[5]
  ΔTm: 0.4 °C
[6]
  ΔTm: 2 °C
[7]
  ΔTm: 0.1 °C
[8]
  ΔTm: 0.1 °C
[9]
  ΔTm: 0.9 °C
[10]
  ΔTm: 1.5 °C
[11]
  ΔTm: 3.6 °C
[12]
  ΔTm: 2.8 °C
[13]
  ΔTm: 0.4 °C
[14]
  ΔTm: 0.8 °C
[15]
  ΔTm: 0.3 °C
[16]
  ΔTm: -0.3 °C
[17]
  ΔTm: 0.8 °C
[18]
  ΔTm: 0.6 °C

## O=C1Nc2ccc(I)cc2/C1=C\c1cc(Br)c(O)c(Br)c1
[1]
  ΔTm: -0.4 °C
[2]
  ΔTm: 0.4 °C
[3]
  ΔTm: 1 °C
[4]
  ΔTm: 0.2 °C
[5]
  ΔTm: 6.8 °C
[6]
  ΔTm: 1.3 °C
[7]
  ΔTm: 0.5 °C
[8]
  ΔTm: -1.6 °C
[9]
  ΔTm: -0.8 °C
[10]
  ΔTm: 0.5 °C
[11]
  ΔTm: 2.7 °C
[12]
  ΔTm: 1.3 °C
[13]
  ΔTm: -0.1 °C
[14]
  ΔTm: 0.3 °C
[15]
  ΔTm: -0.2 °C
[16]
  ΔTm: -2.8 °C
[17]
  ΔTm: 0 °C
[18]
  ΔTm: 1.7 °C
